# Measured values as given in patent US20070135307A1, “Inhibition of tuber sprouting” (ACETO AGRICULTURAL CHEMICALS CORP., priority 2005, published 2007).
# Tests used:
# [1] = test system: Russet Norkotah potato tubers; assay: Sprout inhibition of stored potato tubers, Russet Norkotah (% OK for fresh pack); assay type: in vivo, Solanum tuberosum
# From the text: (§1) The storage system was designed to duplicate a large commercial storage facility in miniature. Drums containing 150-200 pounds of potatoes were sealed and housed in a building in which temperature and humidity could be controlled. Formed in each drum is an inlet in which untreated air (ventilation air) was introduced under a perforated floor to the drum. The ventilation air moves through the pile of potatoes and is exhausted from the top of the drum to the outside of the building.
# (§2) This storage ventilation was shut down for a 24 hour duration during and directly after the treatment of the chemicals. Then it is maintained for the duration of the trial, with ventilation air forced through the drums at a rate of 0.5 cubic feet per minute on a three-hour on and a three-hour off schedule.
# (§3) In the spray application technique the formulations were mixed with water and sprayed on the newly harvested tubers at a rate of 5 and 10 parts per million (weight of the active to weight of the potatoes) mixed in a water carrier. The mixture was applied at 1 quart per ton of potatoes. The spray was applied via a hand held spray gun propelled with compressed air as the tubers were rotating in a cement mixer drum. This insured that all surface area is coated with the active ingredient.
# (§4) The Fogs were all applied with thermal foggers built to duplicate applications of commercial thermal fogging techniques.
# (§5) The custom thermal fogger's heat source was an electric hot plate set at 500 degrees F. This temperature is monitored throughout the application with a thermal couple that is inserted in a cavity just below the surface where the chemical is placed. A chamber was attached to the hot plate. A fan was mounted to the top of the chamber. The fogger was attached to the storage container with flexible tubing.
# (§6) The fog was delivered to each drum through separate ports. Through the bottom port of the storage drum a perforated stinger was installed that runs the length of the drum. Flexible tubing delivered the fog air mixture from the fogger. The fog air mixture was returned to the thermal fogger through a second flexible tubing that was attached from the top of the storage drum to the bottom of the thermal fogger. The air fog mixture was recirculated through the system for five minutes.
# (§7) The potatoes were monitored for sprout activity on a regular basis after treatment. When early sprout activity was observed the potatoes were first evaluated. Then at approximately 30 day intervals, 60 tubers were randomly selected from each treatment. Each tuber was rated for the length of the longest sprout on each tuber. The scale used for the rating system as is follows: • 0-Not Peeping=no sprout or swelling of eye tissue evident. • 1-Peeping=swelling of eye tissue up to a sprout length of 3 mm • 2-sprout length from 3 mm to […]. • 3-sprout length from 1 cm to 3 cm. • 4-sprout length from 3 cm to 5 cm. • 5-sprout length from 5 cm and longer
# (§8) Results of each set of 60 tubers were recorded into 6 subsets of 10 tubers each (replicates). The data is summarized into PERCENT OK RE: FRESHPCK (Fresh pack). The PERCENT OK RE: FRESHPCK is the percent of the tubers that are NOT PEEPING and PEEPING categories combined together (i.e., the addition of the percentage of potatoes rated that are in the “0”-Not peeping=(no sprout or swelling of the eye tissue evident) plus “1” Peeping=(swelling of the eye tissue up to a sprout length of 3 mm.).
# (§9) Analysis times are approximate days after harvest (DAH)
# [2] = test system: Russet Burbank potato tubers; assay: Sprout inhibition of stored potato tubers, Russet Burbank (% OK for fresh pack); assay type: in vivo, Solanum tuberosum
# From the text: as §1, §2, §3, §4, §5, §6, §7, §8, §9
Compound,"% OK For Fresh Pack, Dormant + sprout up to 3 mm ([1]; 5 ppm Spray, 53 DAH)","% OK For Fresh Pack, Dormant + sprout up to 3 mm ([1]; 5 ppm Spray, 85 DAH)","% OK For Fresh Pack, Dormant + sprout up to 3 mm ([1]; 5 ppm Spray, 107 DAH)","% OK For Fresh Pack, Dormant + sprout up to 3 mm ([1]; 10 ppm Spray, 53 DAH)","% OK For Fresh Pack, Dormant + sprout up to 3 mm ([1]; 10 ppm Spray, 85 DAH)","% OK For Fresh Pack, Dormant + sprout up to 3 mm ([1]; 10 ppm Spray, 107 DAH)","% OK For Fresh Pack, Dormant + sprout up to 3 mm ([2]; 5 ppm Spray, 132 DAH)","% OK For Fresh Pack, Dormant + sprout up to 3 mm ([2]; 5 ppm Spray, 161 DAH)","% OK For Fresh Pack, Dormant + sprout up to 3 mm ([2]; 5 ppm Spray, 191 DAH)","% OK For Fresh Pack, Dormant + sprout up to 3 mm ([2]; 5 ppm Spray, 223 DAH)","% OK For Fresh Pack, Dormant + sprout up to 3 mm ([2]; 5 ppm Spray, 252 DAH)","% OK For Fresh Pack, Dormant + sprout up to 3 mm ([2]; 5 ppm Spray, 283 DAH)",other results
"C#CC(C)(C)NC(=O)c1cc(Cl)cc(Cl)c1 [PRO, 3,5-dichloro-N-(1,1-dimethyl-2-propynyl)benzamide]",100.0%,90.0%,18.3%,100.0%,80.0%,28.3%,100.0%,83.3%,71.7%,61.7%,60.0%,50.0%,–
"CC(C)OC(=O)Nc1cccc(Cl)c1 [CIPC 98A, isopropyl 3-chlorophenylcarbamate]",–,–,–,–,–,–,–,–,–,–,–,–,"% OK For Fresh Pack, Dormant + sprout up to 3 mm ([2]; 11 ppm Fog, 132 DAH): 100.0%; % OK For Fresh Pack, Dormant + sprout up to 3 mm ([2]; 11 ppm Fog, 161 DAH): 26.7%; % OK For Fresh Pack, Dormant + sprout up to 3 mm ([2]; 11 ppm Fog, 191 DAH): 0.0%; % OK For Fresh Pack, Dormant + sprout up to 3 mm ([2]; 11 ppm Fog, 223 DAH): 0.0%; % OK For Fresh Pack, Dormant + sprout up to 3 mm ([2]; 11 ppm Fog, 252 DAH): 0.0%; % OK For Fresh Pack, Dormant + sprout up to 3 mm ([2]; 11 ppm Fog, 283 DAH): 0.0%; % OK For Fresh Pack, Dormant + sprout up to 3 mm ([2]; 16.6 ppm Fog, 132 DAH): 100.0%; % OK For Fresh Pack, Dormant + sprout up to 3 mm ([2]; 16.6 ppm Fog, 161 DAH): 26.7%; % OK For Fresh Pack, Dormant + sprout up to 3 mm ([2]; 16.6 ppm Fog, 191 DAH): 0.0%; % OK For Fresh Pack, Dormant + sprout up to 3 mm ([2]; 16.6 ppm Fog, 223 DAH): 0.0%; % OK For Fresh Pack, Dormant + sprout up to 3 mm ([2]; 16.6 ppm Fog, 252 DAH): 0.0%; % OK For Fresh Pack, Dormant + sprout up to 3 mm ([2]; 16.6 ppm Fog, 283 DAH): 0.0%"
"CCOC1Oc2ccc(OS(C)(=O)=O)cc2C1(C)C (racemic) [ETH, (RS)-2-ethoxy-2,3-dihydro-3,3-dimethylbenzofuran-5-yl methanesulfonate]",68.3%,11.7%,0.0%,93.3%,33.3%,3.3%,–,–,–,–,–,–,–
"CCNC(=O)[C@@H](C)OC(=O)Nc1ccccc1 [Car, Ethyl-2-(((phenylamino)carbonyl)oxy)promanamide]",–,–,–,–,–,–,93.3%,8.3%,0.0%,0.0%,0.0%,0.0%,–
"CC(C)OC(=O)Nc1cccc(Cl)c1 [CIPC A, isopropyl 3-chlorophenylcarbamate]",–,–,–,–,–,–,–,–,–,–,–,–,"% OK For Fresh Pack, Dormant + sprout up to 3 mm ([1]; 16.6 ppm Fog, 53 DAH): 100.0%; % OK For Fresh Pack, Dormant + sprout up to 3 mm ([1]; 16.6 ppm Fog, 85 DAH): 86.7%; % OK For Fresh Pack, Dormant + sprout up to 3 mm ([1]; 16.6 ppm Fog, 107 DAH): 86.7%"
"CCCCC(CC)COC(=O)COc1ccc(Cl)cc1Cl (stereo not drawn) [2,4 D LV, Isoocotyl (2-ethylhexyl) ester of 2,4-dichlorophenoxyacetic acid]",–,–,–,–,–,–,96.7%,30.0%,8.3%,0.0%,0.0%,0.0%,–
"O=C(O)CCCOc1ccc(Cl)cc1Cl [2,4 DB, Dimethyl Amine of 4-(2,4-Dichloropenoxy) butyric acid]",81.7%,3.3%,0.0%,91.7%,11.7%,0.0%,–,–,–,–,–,–,–
"CC(=O)Nc1cc(NS(=O)(=O)C(F)(F)F)c(C)cc1C [MEF, N-[2,4-dimethyl-5-[[(trifluoromethyl)sulfonyl]amino]phenyl]acetamide]",81.7%,11.7%,0.0%,93.3%,13.3%,0.0%,–,–,–,–,–,–,–
"CC(C)(C)[C@@H](O)[C@@H](Cc1ccc(Cl)cc1)n1cncn1 (racemic) [PAC, (2RS,3RS)-1-(4-chlorophenyl)-4,4-dimethyl-2-(1H-1,2,4-triazol-1-yl)pentan-3-ol]",93.3%,13.3%,1.7%,86.7%,13.3%,0.0%,–,–,–,–,–,–,–
